Experiments:
OcomOBP7 [1] = assay: Fluorescence competitive binding assay (1-NPN displacement); design: species or system Ophraella communa; conditions: 1-NPN 2 μM; for Ki: Ki = [IC50]/(1 + [1-NPN]/K1-NPN), OcomOBP7 2 μM, pH 7.4, read-out: Ki (dissociation constant); for IC50: recombinant OcomOBP7 2 μM, 50 mM Tris-HCl pH 7.4, ligand 2–20 μM
Experimental: Based on previous research on the volatiles of A. artemisiifolia, 26 standard chemical odors were selected to verify the binding characteristics of OcomOBP7 using a fluorescence binding assay (Table 2).
(§1) Fluorescence competition binding experiments were performed using an F-380 fluorescence spectrophotometer (Gangdong Technology, Tianjin, China), and the quartz cuvette was 1 cm wide. The excitation and emission slits were 10 nm, the sensitivity was 2 s, the emission wavelength range was 360–500 nm, the excitation wavelength was 337 nm, and the scanning speed was 1200 nm/min. The fluorescent probe, 1-NPN, was dissolved in a chromatographic methanol solution at a concentration of 1 mM. The target protein was diluted to 2 μM with 50 mM Tris-HCl (pH 7.4), and 1 mL of protein diluent was added to the cuvette. The 1-NPN fluorescent probe was added to the protein diluent to obtain a final concentration of 2–20 μM and was allowed to stand for 30 s after mixing. The maximum fluorescence value for each addition of 1-NPN was recorded, and three replicates were used. The 1-NPN fluorescent probe was added to the protein diluent at a final concentration of 2 μM, mixed well, and allowed to stand for 30 s. The maximum fluorescence intensity of 1-NPN was recorded. The odorant ligand was then added at a final concentration of 2–20 μM, and the maximum fluorescence value produced by the mixed solution was determined.
The dissociation constants Ki of OcomOBP7 and the fluorescent ligand compounds were calculated using the Scatchard equation. The formula is as follows: Ki = [IC50]/(1 + [1-NPN]/K1-NPN), where [1-NPN] represents the concentration of unbound 1-NPN, and K1-NPN is the binding constant of the OcomOBP7/1-NPN complex.

OcomOBP7 [2] = assay: Binding of fluorescent probe 1-NPN to OcomOBP7 (binding curve, Scatchard); design: species or system Ophraella communa; conditions: OcomOBP7 2 μM, 1-NPN 2–20 μM, pH 7.4; read-out: binding constant (Kd) of the protein and probe 1-NPN
Experimental: as §1
The dissociation constants Ki of OcomOBP7 and the fluorescent ligand compounds were calculated using the Scatchard equation. […]

O. communa antennae [3] = tested on: O. communa antennae; design: method as in a previous experiment; conditions: ref a previous experiment; cited from earlier work
O. communa antennae [4] = assay: Electroantennography (EAG) after RNAi; assay type: in vivo, Ophraella communa; conditions: odorant 10 μg/μL in n-hexane, 10 μL; for EAG response of O. communa antennae: after injection of dsRNA (dsOBP7), 48 h; for average EAG response of O. communa antennae: dsEGFP control group, 48 h after injection
Experimental: dsRNA templates were synthesized by PCR using primers containing the T7 promoter sequence as templates. dsRNA was synthesized in vitro using a T7 RNAi Transcription Kit (Ambion Inc., Waltham, MA, USA) according to the manufacturer’s instructions. dsRNA was dissolved in DEPC water and its concentration determined using a Nanophotometer P330 (Implen, Germany). The quality of RNA was determined using 1% gel electrophoresis. Female and male adults with an initial emergence of <12 h were injected. A Nanoliter 2000 microinjector (WPI, Sarasota, FL, USA) was used to inject 1 ng of dsRNA into the pronotum of beetles. dsEGFP was used as a control. After injection, the beetles were kept in Petri dishes and fed fresh A. artemisiifolia leaves daily.
Based on the fluorescence binding experimental results, α-pinene, ocimene, and myrcene were used for the electrophysiological experiments. […] Therefore, the odorants in this experiment were dissolved in n-hexane at a final concentration of 10 μg/μL, with n-hexane alone serving as a blank control. Filter paper strips with 10 μL of odorant were placed in a Pasteur Pipette for EAG experiments. The head and end of one antenna of the O. communa adult were cut off with a blade 48 h after the injection of dsRNA. A glass electrode filled with KCl conductivity liquid was inserted into the incision of the head of the O. communa and then connected to the electroantennogram system. The antenna incision was connected to a glass electrode at the other end using a micromanipulator. Each odorant was stimulated for 0.2 s with an interval of more than 30 s. Each treatment consisted of more than 20 biological replicates. Finally, the response curve was recorded using the EAG2000 software.

O. communa = tested on: O. communa; design: method as in previous experiment results (unpublished data); conditions: ref previous experiment results (unpublished data); cited from earlier work

Compound	Ki (OcomOBP7 [1]) [µM]	IC50 (OcomOBP7 [1]) [µM]	Kd (OcomOBP7 [2]) [µM]	activation of antennal response via the EAG method (O. communa antennae [3])	EAG response of O. communa antennae (O. communa antennae [4])	average EAG response of O. communa antennae (O. communa antennae [4])	attraction of the beetles (O. communa)
C=C(C)C1CC=C(C)CC1 (racemic) [DL-Limonene]	2.84 ± 0.2	4.48					
c1ccc(Nc2cccc3ccccc23)cc1 [1-NPN]			1.47 ± 0.2				
C=CC(=C)CC/C=C(\C)CCC=C(C)C [(E)-β-farnesene]	0.48 ± 0.04	0.76		cannot activate the antennal response			
C=C(C)[C@H]1CC=C(C)CC1 [(R)-(+)-Dipentene]	2.22 ± 0.11	3.5					
CC(=O)OC1CC2CCC1(C)C2(C)C (stereo not drawn) [Bornyl acetate]	20.37 ± 0.07	32.2					
C=C1C2CCC(C2)C1(C)C (stereo not drawn) [Camphene]	9.85 ± 0.66	15.5					
C=CC(=C)CCC=C(C)C [Myrcene]	3.97 ± 0.85	6.26			0.09 ± 0.01	0.10 ± 0.01	significantly attract
C=CC(C)=CCC=C(C)C [Ocimene]	1.23 ± 0.11	1.94			0.14 ± 0.01	0.19 ± 0.01	significantly attract
C=C1CCC2(C(C)C)CC12 (stereo not drawn) [Sabinene]	4.75 ± 0.14	7.49					
CC1=CCC(C(C)C)=CC1 [Y-Terpinene]	4.7 ± 0.32	7.42					
CCCCCCCC [n-Octane]	0.67 ± 0.12	1.05					
CC1=CCC2CC1C2(C)C (stereo not drawn) [α-Pinene]	6.55 ± 0.05	10.3			0.28 ± 0.02	0.36 ± 0.03	significantly attract
CC1=CC[C@H](C(C)C)C=C1 [α-phellandrene]	2.91 ± 0.42	4.59					
C=C1CCC2CC1C2(C)C (stereo not drawn) [β-Pinene]	10.9 ± 0.59	17.2					
(S)-(-)-Limonene	2.55 ± 0.4	4.02					
